Read-outs that look alike come from different tables or passages of the source.
What was measured:
HUVEC = test: CellTiter-Glo luminescent cell viability assay (ATP quantification), HUVEC normal cells; format: cell-based, human; conditions: 72 h treatment
Description: (§1) Influence of the test compounds on viability (proliferation) of cell lines used was investigated in concentration range 0-100 μmol·l^−1.
Normal human endothelial cells from umbilical vein are adherent cells cultivated in plastic Petri dishes coated with collagen I. Into the cultivation medium (E-STIM™; BD Biosciences, cat. co. 355054) already containing 2% FBS (fetal bovine serum), hydrocortisone and heparin the following two further ingredients were added: epidermal growth factor (EGF, 5 μg) and mixture of factors facilitating growth of endothelial cells (ECGS, 100 mg). […] The cells were passaged after reaching 90% confluency by dissociation using 0.25% solution of trypsin/EDTA (1 ml; 3 min; 37° C.). After that 5 ml of complete cultivation medium E-STIM™ was added and the cells were centrifuged (180×g, 7 min), the pellet was resuspended, and transferred in the amount needed into a new Petri dish with fresh medium. The cells were used in experiments between the 3rd and the 8th passage after defreezing. Population doubling time of HUVEC cell line was 38 h under the cultivation conditions used.
(§2) In order to test the sensitivity of the cell lines towards the studied helquats, cytotoxity test for cell viability assessment based on ATP quantification in cell lysates was used (CellTiter-Glo® Luminescent Cell Viability Assay, Promega, cat. no. G7571). In this test, ATP in cell lysates is detected using luciferase reaction. Luminescence intensity correlates with the ATP level and thus with quantity of metabolically active (viable) cells. IC50 value serves as the output, that is the concentration of the test compound which leads to 50% reduction in number of viable cells as compared to control, untreated population. To this end, IC50 value reflects efficiency of the test compound with regard to the given cell line.
(§3) Cells in the exponential growth phase were seeded into a 96-well microtiter plate were plated at 3000 cells per well. Each well contained 90 μl of cell suspension. The next day, 10 μl of 10× concentrated test compound solutions were added. The effect of helquats was investigated in concentration range 1 to 100 μmol·l^−1 (e.g. 1; 2.5; 5; 7.5; 10; 15; 25; 50 and 100 μmol·l^−1). Apart from the section containing the concentration series of the test compound, each well contained 2 control columns, the first with pure medium (so called blank) and the second with cells in medium without the test compounds (control). Into wells containing controls and blanks, volume of solvent (water) equal to the volume of added compound solutions was added. After 72 h of incubation with the test compounds viability was determined according to the manufacturer's instructions. In short: microtiter well plate was left 30 min to reach the room temperature after it has been removed from the incubator. Then, into each well, 100 μl of the prepared detection agent was added. Next, the well plate was shaken for 2 min to complete the full lysis. Next, after the well had been left in the dark for 15 min, the luminescence was measured in each well using luminometer (Tecan Genios, Austria).
(§4) IC50 value represents concentration of the test compound, which leads to 50% reduction of viable cells (inhibition of cell growth) after 72 h of the treatment. Each helquat concentration was tested in triplicates in a IC50 quantification and at least 3 independent IC50 quantification experiments were performed. IC50 values over 100 μmol·l^−1 were obtained by extrapolation of data measured in concentration range 0-100 μmol·l^−1 for the given helquat.

Hep G2 = test: CellTiter-Glo luminescent cell viability assay (ATP quantification), Hep G2; format: cell-based; conditions: hepatocellular carcinoma cells, 72 h treatment, viable cells by ATP luminescence
Description: as §1
Adherent cell line Hep G2 is a permanent in vitro culture derived from liver tissue of a patient with hepatocellular carcinoma. Hep G2 cell line was cultivated in DMEM medium (Sigma-Aldrich, cat. no. M4528) with addition of 2 mmol·l^−1 glutamine (Invitrogen, see above), 10% fetal bovine serum (FBS, Sigma-Aldrich, see above), 100 IU/ml peniciline, 100 μg/ml streptomycine (Sigma-Aldrich, see above). Passaging was performed twice a week. After washing of cells with sterile PBS, the cells were released by 0.25% trypsin/EDTA (Sigma-Aldrich, see above) at 37° C. for 2 minutes. The trypsin was inactivated by addition of 2 volumes of complete medium, cells were then centrifuged (250×g, 5 min), resuspended, and transferred in the amount needed into a new cultivation bottle with fresh medium. Population doubling time of Hep G2 cell line was 28 h under the cultivation conditions used.
as §2
as §3, with “In short: microtiter well plate was left 30 min to reach the room temperature after it has been removed from the incubator. Then, into each well, 100 μl of the prepared detection agent was added. Next, the well plate was shaken for 2 min to complete the full lysis.” left out, “Austria). […]” for “Austria).”

HeLa = test: CellTiter-Glo luminescent cell viability assay (ATP quantification), HeLa; format: cell-based; conditions: cervical cancer cells, 72 h treatment, viable cells by ATP luminescence
Description: as §1
Adherent cell line HeLa is a permanent in vitro culture derived from cervical cancer. HeLa cell line was cultivated in RPMI 1640 medium (Dutch modification) (Sigma-Aldrich, cat. no. R7638) with addition of 2 mmol·l^−1 glutamine (Invitrogen, see above), 10% fetal bovine serum (FBS, Sigma-Aldrich, see above), 100 IU/ml peniciline, 100 μg/ml streptomycine (Sigma-Aldrich, see above). Passaging was performed twice a week. After washing of cells with sterile PBS the cells were released by 0.25% trypsin/EDTA (Sigma-Aldrich, cat. no. T4049) at 37° C. for 2 minutes. The trypsin was inactivated by addition of 2 volumes of complete medium, cells were then centrifuged (250×g, 5 min), the cell pellet was resuspended, and transferred in the amount needed into a new cultivation bottle with fresh medium. Population doubling time of […] cell line was 25 h under the cultivation conditions used.
as §2, §3, §4

## Cc1c(C)c2c(c3c1CC[n+]1ccc(/C=C/c4ccc(N(C)C)cc4)cc1-3)-c1c3ccccc3cc[n+]1CC2 [(M)-1, (M)-(E)-13-(4-(dimethylamino)styryl)-6,7-dimethyl-4,5,8,9-tetrahydroiso-quinolino[1,2-a]pyrido[1,2-k][2,9]phenanthroline-3,10-diium trifluoromethanesulfonate]
HUVEC; normal human endothelial cells, numeric bound, values over 100 obtained by extrapolation of data measured at 0-100 μmol·l−1
  IC50: > 150 µM
Hep G2; read-out: IC50 HepG2
  IC50: 11 to 50 µM
HeLa
  IC50: < 10 µM

## COc1ccc(/C=C/c2cc[n+]3c(c2)-c2c(c(C)c(C)c4c2-c2c5ccccc5cc[n+]2CC4)CC3)cc1 [(M)-6, (M)-(E)-13-(4-methoxystyryl)-6,7-dimethyl-4,5,8,9-tetrahydroisoquinolino[1,2-a]pyrido[1,2-k][2,9]phenanthroline-3,10-diium trifluoromethanesulfonate]
HUVEC; HUVEC, normal human endothelial cells, numeric bound, values over 100 obtained by extrapolation of data measured at 0-100 μmol·l−1
  IC50: > 150 µM
Hep G2; Homo sapiens, HepG2
  IC50: 11 to 50 µM
HeLa; Homo sapiens, HeLa
  IC50: 11 to 50 µM

## COc1ccc2cc(/C=C/c3cc[n+]4c(c3)-c3c(c(C)c(C)c5c3-c3c6ccccc6cc[n+]3CC5)CC4)ccc2c1 [(M)-7, (M)-(E)-13-(2-(6-methoxynaphthalene-2-yl)vinyl)-6,7-dimethyl-4,5,8,9-tetrahydroisoquinolino[1,2-a]pyrido[1,2-k][2,9]phenanthroline-3,10-diium trifluoromethanesulfonate]
HUVEC; normal human endothelial cells from umbilical vein, viable cells by ATP luminescence, class symbols
  IC50: 51 to 150 µM
Hep G2; read-out: IC50 HepG2
  IC50: 11 to 50 µM
HeLa
  IC50: < 10 µM

From patent US9340543B2, “Helquat derivatives, preparation thereof, and use thereof as medicaments” (USTAV ORGANICKE CHEMIE A BIOCHEMIE AKADEMIE VED CR, V.V.I., priority 2013, dated 2016)
